{"source": "patent US8883227B2", "about": "“Plant pathogen inhibitor combinations and methods of use” (priority 2009, dated 2014)", "format_in_all_cases": "in vivo", "key": {"[1]": {"test_system": "Bremia lactucae", "assay": "Lettuce downy mildew test on cotyledons", "method": "Synergy between MBI-106 and acibenzolar-S-methyl or mefenoxam which control a specific class of pathogens Oomycetes was tested with lettuce downy mildew following Su et al. (2004).\nTo prepare inoculum of downy mildew, lettuce seeds were placed on […] petri-dishes with about 20-30 seeds in each and watered with sterile water, then supplied with ½ strength of Hoagland's solution after germination. The petri dishes were placed at 20° C. growth chamber for 7-10 days. The spores of Bremia lactucae was inoculated on lettuce cotyledons and cultured for 7-10 days at 15° C. for sporulation to occur. Cotyledons with sporulation were cut off and placed in a falcon tube with sterile water. The cotyledons were vortexed for 15 seconds three times and filtered through a 100-uμm mesh to collect sporangia. The solution was adjusted to 0.5 to 1.0×10^5 spores/ml for inoculation.\nFour test plants were seeded in each 2-in pots and then placed at 20° C. for 7-10 days to grow cotyledons. Plants were ready for test when the first true leaf was emerging.\nThe lettuce plants were treated with the materials and left to dry or overnight. Then the plants were inoculated with sporangial solution. The treatments were arranged in a randomized complete block design with four replicates. The inoculated plants were placed in darkness in growth chamber for 48 hours and then incubated under 12-h light period at 15° C. Eight to ten days after inoculation, the cotyledons were rated for disease severity (percentage area covered with sporangiophores)."}, "[2]": {"test_system": "Sphaerotheca fuliginea", "assay": "Greenhouse cucumber powdery mildew test, foliar spray alone or in tank mix", "method": "The studies were conducted in a green house. Experimental design of the studies for synergism followed the Burpee and Latin (2008). Powdery mildew, caused by Sphaerotheca fuliginea, was used for investigating the efficacy of the treatments.\nCucumber seeds cv. “SMR 58” (Irwin & Sons Ag Supply, Inc. Cheshire, Oreg.) were grown in plastic 4-inch pots with potting soil mix (Rod McLellan Company, Marysville, Ohio). The plants were treated at 2-true leaf stage. The compounds at various rates were sprayed with a 2-oz mist sprayer at 2 ml per plant at upper side and 1 ml at lower side of the leaves. The treated plants were left for 3-4 hours under florescent light to dry before inoculation.\nA conidia suspension of Sphaerotheca fuliginea, the causal agent of powdery mildew disease on cucumber, was prepared by cutting diseases leaves of the cucumber plants that are served for conservation of inoculum. The suspension were adjusted to 2.0×10^5 conidia per ml and applied with a 2-oz mist sprayer at 2 ml per plant on the upper side of the leaves. The inoculated plants were placed in a greenhouse and the treatments were arranged in randomized complete blocks with 4 to 6 replicates at 25° C. to 30° C.\nThe disease severity (percentage area covered with colonies) of the first leaves were rated according to James (1971). Disease severity and percentage control were analyzed with analysis of variance (ANOVA) and means of the treatments were compared with Fisher's Protected Least Difference (LSD) at p=0.05 level. Synergetic effect was calculated and analyzed with Limpel's formula (Limpel et al., 1962; Richer, 1987)."}, "[3]": {"test_system": "Rhizoctonia solani", "assay": "Soybean seed treatment (seed coating) in infested soil, damping off", "conditions": "inoculated", "method": "The experiments described below were conducted with soybean but similar procedures are used with other crops such as cereals, corn, cotton, and potatoes.\nThe experiments were conducted in a greenhouse following the procedure developed by Hwang et al. (2006). The isolate of Rhizoctonia solani was grown on potato dextrose agar plates and cultured for 5 days for inoculating oat or wheat grain. One liter of grain was soaked overnight at room temperature (25° C.) and rinsed three times with tape water. The 8×12-in autoclave bags were filled with the grain up to ⅓ full were autoclaved at 121° C. for 15 min. The autoclaved grain then was then inoculated with 5 pieces of 1×1 cm plug of the 5-day culture of R. solani per bag and cultured for 5 days at room temperature (25° C.). The bags were left open in laminar flow hood to let the grain completely dry.\nThe blank seed sample of 10 g to be coated was placed in a flask. Coating agent SEPIRET® 1171-O (Becker Underwood Ltd., Ames, Iowa) was put into the flasks together with the compound of interest, and the flask was shaken vigorously so that the seed picked up the compound. The procedure was repeated with fresh seed sample of cvs. “White Lion” (Kitazawa Seed Co., Oakland, Calif.) or “Viking 2265” (Johnny's Selected Seeds, Winslow, Me.) in the same flask for the treatments. After the seeds were coated, they were left to air dry before planting.\nTo prepare the soil, five hundred milliliters of the dried grains with inoculum were blended for 15 seconds three times and the powder was mixed with sterile sand at 1:1 (v/v) to dilute the inoculum. The sand mix was further used to prepare soil mix at various proportions 1:350 to 1:800 (inoculum:soil) for soybean to generate various disease levels in repeated tests.\nThe coated seeds were planted in the pots with infested soil. There were three replicates of each treatment which were arranged in a complete randomized block design and placed at 25 to 30° C. in a greenhouse.\nAfter 10 to 20 days, depending on disease pressure and temperature, emergence of each treatment was rated and compared. Biomass was measured by weighing the above-ground portion which was measured for each replicate of the plant material."}, "[4]": {"conditions": "Example VI, acibenzolar-S-methyl 25 ug/ml alone"}, "[5]": {"conditions": "Example IV, azoxystrobin 0.25 ug/ml alone"}, "[6]": {"conditions": "Example IV, azoxystrobin 0.5 ug/ml alone"}, "[7]": {"conditions": "Example IV, azoxystrobin 1.0 ug/ml alone"}, "[8]": {"conditions": "Example IV, azoxystrobin 5.0 ug/ml alone"}, "[9]": {"conditions": "Example IV, azoxystrobin 10.0 ug/ml alone"}, "[10]": {"conditions": "Example XI (Test II), azoxystrobin 0.1 ug/ml alone"}, "[11]": {"conditions": "Example XI (Test II), azoxystrobin 0.25 ug/ml alone"}, "[12]": {"conditions": "Example XI (Test II), azoxystrobin 0.5 ug/ml alone"}, "[13]": {"conditions": "Example VIII, azoxystrobin 0.0298 g/kg alone"}, "[14]": {"conditions": "Example IX, fludioxonil 0.0596 g ai/kg alone"}, "[15]": {"conditions": "Example VII, mefenoxam 37.5 ug/ml alone"}, "[16]": {"conditions": "Example VII, mefenoxam 75 ug/ml alone"}, "[17]": {"conditions": "Example VII, mefenoxam 150 ug/ml alone"}, "[18]": {"conditions": "Example I, myclobutanil 0.05 ug/ml alone"}, "[19]": {"conditions": "Example I, myclobutanil 0.1 ug/ml alone"}, "[20]": {"conditions": "Example I, myclobutanil 0.25 ug/ml alone"}, "[21]": {"conditions": "Example II (repeated test), myclobutanil 0.05 ug/ml alone"}, "[22]": {"conditions": "Example II (repeated test), myclobutanil 0.1 ug/ml alone"}, "[23]": {"conditions": "Example II (repeated test), myclobutanil 0.25 ug/ml alone"}, "[24]": {"conditions": "Example X, propiconazole 1.0 ug/ml alone"}, "[25]": {"conditions": "Example III, quinoxyfen 0.01 ug/ml alone"}, "[26]": {"conditions": "Example III, quinoxyfen 0.05 ug/ml alone"}, "[27]": {"conditions": "Example V, triflumizole 0.25 ug/ml alone"}, "[28]": {"conditions": "Example V, triflumizole 0.5 ug/ml alone"}, "[29]": {"conditions": "Example V, triflumizole 1.0 ug/ml alone"}}, "data": [{"smiles": "CSC(=O)c1cccc2nnsc12", "note": "[acibenzolar-S-methyl]", "values": [{"measurement": "Control (%)", "setting": "[1]; [4]", "value": 23.4, "unit": "%"}, {"measurement": "Severity (%)", "setting": "[1]; [4]", "value": 68.9, "unit": "%"}]}, {"smiles": "CO/C=C(/C(=O)OC)c1ccccc1Oc1cc(Oc2ccccc2C#N)ncn1", "note": "[azoxystrobin]", "values": [{"measurement": "Control (%)", "setting": "[2]; [5]", "value": 51.8, "unit": "%"}, {"measurement": "Severity (%)", "setting": "[2]; [5]", "value": 45.0, "unit": "%"}, {"measurement": "Control (%)", "setting": "[2]; [6]", "value": 48.0, "unit": "%"}, {"measurement": "Severity (%)", "setting": "[2]; [6]", "value": 48.8, "unit": "%"}, {"measurement": "Control (%)", "setting": "[2]; [7]", "value": 68.1, "unit": "%"}, {"measurement": "Severity (%)", "setting": "[2]; [7]", "value": 30.0, "unit": "%"}, {"measurement": "Control (%)", "setting": "[2]; [8]", "value": 94.3, "unit": "%"}, {"measurement": "Severity (%)", "setting": "[2]; [8]", "value": 5.3, "unit": "%"}, {"measurement": "Control (%)", "setting": "[2]; [9]", "value": 87.6, "unit": "%"}, {"measurement": "Severity (%)", "setting": "[2]; [9]", "value": 11.3, "unit": "%"}, {"measurement": "Control (%)", "setting": "[2]; [10]", "value": 21.6, "unit": "%"}, {"measurement": "Severity (%)", "setting": "[2]; [10]", "value": 72.5, "unit": "%"}, {"measurement": "Control (%)", "setting": "[2]; [11]", "value": 13.5, "unit": "%"}, {"measurement": "Severity (%)", "setting": "[2]; [11]", "value": 80.0, "unit": "%"}, {"measurement": "Control (%)", "setting": "[2]; [12]", "value": 62.2, "unit": "%"}, {"measurement": "Severity (%)", "setting": "[2]; [12]", "value": 35.0, "unit": "%"}, {"measurement": "Control (%)", "setting": "[3]; [13]", "value": 81.5, "unit": "%"}, {"measurement": "Emergence (%)", "setting": "[3]; [13]", "value": 86.4, "unit": "%"}]}, {"smiles": "N#Cc1c[nH]cc1-c1cccc2c1OC(F)(F)O2", "note": "[fludioxonil]", "values": [{"measurement": "Bio mass", "setting": "[3]; [14]", "value": 8.7, "unit": "g"}, {"measurement": "Control (%)", "setting": "[3]; [14]", "value": 28.4, "unit": "%"}, {"measurement": "Emergence (%)", "setting": "[3]; [14]", "value": 35.8, "unit": "%"}]}, {"smiles": "COCC(=O)N(c1c(C)cccc1C)[C@H](C)C(=O)OC", "note": "[mefenoxam]", "values": [{"measurement": "Control (%)", "setting": "[1]; [15]", "value": "−2.6", "unit": "%"}, {"measurement": "Severity (%)", "setting": "[1]; [15]", "value": 89.3, "unit": "%"}, {"measurement": "Control (%)", "setting": "[1]; [16]", "value": 37.7, "unit": "%"}, {"measurement": "Severity (%)", "setting": "[1]; [16]", "value": 54.2, "unit": "%"}, {"measurement": "Control (%)", "setting": "[1]; [17]", "value": 48.5, "unit": "%"}, {"measurement": "Severity (%)", "setting": "[1]; [17]", "value": 44.8, "unit": "%"}]}, {"smiles": "CCCCC(C#N)(Cn1cncn1)c1ccc(Cl)cc1", "note": "(centres unmarked) [myclobutanil]", "values": [{"measurement": "Control (%)", "setting": "[2]; [18]", "value": 2.5, "unit": "%"}, {"measurement": "Severity (%)", "setting": "[2]; [18]", "value": 95.8, "unit": "%"}, {"measurement": "Control (%)", "setting": "[2]; [19]", "value": 3.2, "unit": "%"}, {"measurement": "Severity (%)", "setting": "[2]; [19]", "value": 95.0, "unit": "%"}, {"measurement": "Control (%)", "setting": "[2]; [20]", "value": 83.1, "unit": "%"}, {"measurement": "Severity (%)", "setting": "[2]; [20]", "value": 16.7, "unit": "%"}, {"measurement": "Control (%)", "setting": "[2]; [21]", "value": "−2.8", "unit": "%"}, {"measurement": "Severity (%)", "setting": "[2]; [21]", "value": 93.8, "unit": "%"}, {"measurement": "Control (%)", "setting": "[2]; [22]", "value": 12.2, "unit": "%"}, {"measurement": "Severity (%)", "setting": "[2]; [22]", "value": 80.0, "unit": "%"}, {"measurement": "Control (%)", "setting": "[2]; [23]", "value": 41.3, "unit": "%"}, {"measurement": "Severity (%)", "setting": "[2]; [23]", "value": 53.8, "unit": "%"}]}, {"smiles": "CCCC1COC(Cn2cncn2)(c2ccc(Cl)cc2Cl)O1", "note": "(centres unmarked) [propiconazole]", "values": [{"measurement": "Control (%)", "setting": "[2]; [24]", "value": 1.3, "unit": "%"}, {"measurement": "Severity (%)", "setting": "[2]; [24]", "value": 97.5, "unit": "%"}]}, {"smiles": "Fc1ccc(Oc2ccnc3cc(Cl)cc(Cl)c23)cc1", "note": "[quinoxyfen, 5,7-dichloro-4-quinolyl 4-fluorophenyl ether]", "values": [{"measurement": "Control (%)", "setting": "[2]; [25]", "value": 1.33, "unit": "%"}, {"measurement": "Severity (%)", "setting": "[2]; [25]", "value": 90.0, "unit": "%"}, {"measurement": "Control (%)", "setting": "[2]; [26]", "value": 66.95, "unit": "%"}, {"measurement": "Severity (%)", "setting": "[2]; [26]", "value": 30.0, "unit": "%"}]}, {"smiles": "CCCOC/C(=N\\c1ccc(Cl)cc1C(F)(F)F)n1ccnc1", "note": "[triflumizole]", "values": [{"measurement": "Control (%)", "setting": "[2]; [27]", "value": 2.6, "unit": "%"}, {"measurement": "Severity (%)", "setting": "[2]; [27]", "value": 95.0, "unit": "%"}, {"measurement": "Control (%)", "setting": "[2]; [28]", "value": 11.5, "unit": "%"}, {"measurement": "Severity (%)", "setting": "[2]; [28]", "value": 86.3, "unit": "%"}, {"measurement": "Control (%)", "setting": "[2]; [29]", "value": 20.5, "unit": "%"}, {"measurement": "Severity (%)", "setting": "[2]; [29]", "value": 77.5, "unit": "%"}]}]}
